The text below walks through data of patent US20230365563A1, “QUINAZOLINE COMPOUND AND APPLICATION THEREOF” (SHANGHAI PHARMACEUTICALS HOLDING CO., LTD., priority 2020, published 2023).

As usually defined, the IC50 is the concentration at which inhibition is half-maximal.

The target in one assay is T1, KRAS_G12D and cRAF (Homo sapiens, UniProt P01116, G12D).
T1 construct: purchased
Nature of the assay: Inhibition of KRAS_G12D/cRAF binding (Cisbio binding kit, 665/615 ratio), Effect Embodiment B. To be noted: read-out: GTP-KRAS-G12D:CRAF IC50. Summed up: (§1)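 Test compounds were serially diluted 3-fold from the storage solution over 11 points and dispensed in duplicate wells at 1% final DMSO.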

The next assay addresses T2, KRAS-G12D and SOS1 (Homo sapiens, UniProt P01116, G12D).
T2 construct: purchased
Nature of the assay: Inhibition of KRAS-G12D/SOS1 binding (Cisbio binding kit, 665/615 ratio), Effect Embodiment A. To be noted: read-out: GTP-KRAS-G12D:SOS1 IC50. Summed up:
as §1

The target of the next assay is T3, KRAS_WT and SOS1 (Homo sapiens, UniProt P01116).
T3 construct: purchased
Briefly: Inhibition of KRAS_WT/SOS1 binding (Cisbio binding kit, 665/615 ratio), Effect Embodiment C. To be noted: read-out: GTP-KRAS-WT:SOS1 IC50. Summed up: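 Compounds tested as 3-fold, 11-point dilutions in duplicate at 1% DMSO final against the KRAS_WT/SOS1 binding system. IC50 derived by nonlinear regression fit.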

Where a name gives a salt, the structure may show the parent alone.

T1 sequence (P01116 1-188 isoform P01116-2 G12D): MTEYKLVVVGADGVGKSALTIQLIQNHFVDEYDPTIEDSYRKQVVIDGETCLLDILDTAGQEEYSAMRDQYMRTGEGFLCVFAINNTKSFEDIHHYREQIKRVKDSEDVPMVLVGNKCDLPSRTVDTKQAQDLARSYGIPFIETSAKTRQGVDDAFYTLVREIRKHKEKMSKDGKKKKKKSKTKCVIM
T2 sequence (P01116 1-188 isoform P01116-2 G12D): as above
T3 sequence (P01116 1-188 isoform P01116-2): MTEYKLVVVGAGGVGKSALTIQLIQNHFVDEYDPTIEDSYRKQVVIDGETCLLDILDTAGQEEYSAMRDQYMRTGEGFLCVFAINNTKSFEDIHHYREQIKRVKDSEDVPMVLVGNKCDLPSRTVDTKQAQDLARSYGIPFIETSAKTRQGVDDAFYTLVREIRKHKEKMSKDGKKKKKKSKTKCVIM

With `C#Cc1c(F)ccc2cccc(-c3c(F)cc4c(N5CC6CCC(C5)N6)nc(OCCCN5C6CCC5COC6)nc4c3F)c12` (single isomer, unassigned) [Compound 272b, 8-(3-((R or S)-4-((1R,5S)-3,8-diazabicyclo[3.2.1]octan-3-yl)-7-(8-ethynyl-7-fluoronaphtthalen-1-yl)-6,8-difluoroquinazolin-2-yl)oxy)propyl)-3-oxa-8-azabicyclo[3.2.1]octane formate], the IC50 amounted to 76.8 nM at KRAS_G12D and cRAF; 18 nM at KRAS-G12D and SOS1; 4260 nM on KRAS_WT and SOS1.

Regarding `C#Cc1cccc2cc(O)cc(-c3c(F)cc4c(N5CC6CCC(C5)N6)nc(OCCCN5C6CCC5COC6)nc4c3F)c12` (single isomer, unassigned) [Compound 273a, 4-((7S or 7R)-2-(3-(3-oxa-8-azabicyclo[3.2.1]octan-8-yl)propoxy)-4-((1R,5S)-3,8-diazabicyclo[3.2.1]octan-3-yl)-6,8-difluoroquinazolin-7-yl)-5-ethynylnaphthalen-2-ol diformate], the IC50 came out at 7.91 nM on KRAS_G12D and cRAF; 11.3 nM at KRAS-G12D and SOS1; 69.8 nM on KRAS_WT and SOS1.

In the case of `N#Cc1cccc2cc(O)cc(-c3c(F)cc4c(N5CC6CCC(C5)N6)nc(OCCCN5C6CCC5COC6)nc4c3F)c12` (single isomer, unassigned) [Compound 278a, 8-((7S or 7R)-2-(3-(3-oxa-8-azabicyclo[3.2.1]octan-8-yl)propoxy)-4-((1R,5S)-3,8-diazabicyclo[3.2.1]octan-3-yl)-6,8-difluoroquinazolin-7-yl)-6-hydroxy-1-naphthonitrile diformate], the IC50 on KRAS_G12D and cRAF is 38.6 nM; at KRAS-G12D and SOS1 it was 17.6 nM; on KRAS_WT and SOS1, 122 nM.

For `C#Cc1c(F)ccc2cccc(-c3c(F)cc4c(N5CC6CCC(C5)N6)nc(OC[C@@]56CCCN5C[C@H](F)C6)nc4c3F)c12` (single isomer, unassigned) [Compound 279a, (S or R)-4-((1R,5S)-3,8-diazacyclo[3.2.1]octyl-3-yl)-7-(8-ethynyl-7-fluoronaphthalen-1-yl)-6,8-difluoro-2-((2R,7aS)-2-fluorotetrahydro-1H-pyrrolidin-7a(5H)-yl)methoxy)quinazoline formate], the IC50 was determined as 10.9 nM at KRAS_G12D and cRAF; 8.77 nM at KRAS-G12D and SOS1; 27.3 nM on KRAS_WT and SOS1.

Regarding `CCc1c(F)ccc2cccc(-c3c(F)cc4c(N5CC6CCC(C5)N6)nc(OC[C@@]56CCCN5C[C@H](F)C6)nc4c3F)c12` (single isomer, unassigned) [Compound 280a, 4-((1R,5S)-3,8-diazacyclo[3.2.1]octan-3-yl)-7-((S or R)-8-ethyl-7-fluoronaphthalen-1-yl)-6,8-difluoro-2-((2R,7aS)-2-fluorotetrahydro-1H-pyrrolidin-7a(5H)-yl)methoxy)quinazoline dihydrochloride], the concentration for half-maximal inhibition (IC50) at KRAS_G12D and cRAF is 14.1 nM; on KRAS-G12D and SOS1, 17.1 nM; at KRAS_WT and SOS1 it was 234 nM.

As for `CCc1cccc2cccc(-c3c(F)cc4c(N5CC6CCC(C5)N6)nc(OC[C@@]56CCCN5C[C@H](F)C6)nc4c3F)c12` (single isomer, unassigned) [Compound 281a, (S or R)-4-((1R,5S)-3,8-diazacyclo[3.2.1]octan-3-yl)-7-(8-ethylnaphthalen-1-yl)-6,8-difluoro-2-((2R,7aS)-2-fluorotetrahydro-1H-pyrrolin-7a(5H)-yl)methoxy)quinazoline dihydrochloride], the IC50 on KRAS_G12D and cRAF is 20.3 nM; on KRAS-G12D and SOS1, 17.8 nM; at KRAS_WT and SOS1, 564 nM.

For the molecule `CCc1cccc2cc(O)cc(-c3c(F)cc4c(N5CC6CCC(C5)N6)nc(OCCCN5CCOC[C@H]5C)nc4c3F)c12` (single isomer, unassigned) [Compound 282a, (S or R)-4-(4-((1R,5S)-3,8-diazacyclo[3.2.1]octan-3-yl)-6,8-difluoro-2-(3-((R)-3-methylmorpholinyl)propoxy)quinazolin-7-yl)-5-ethylnaphthalen-2-ol dihydrochloride], the IC50 on KRAS_G12D and cRAF came out at 13.6 nM; at KRAS-G12D and SOS1, 16.5 nM; at KRAS_WT and SOS1, 175 nM.

As to `CCc1cccc2cc(O)cc(-c3c(F)cc4c(N5CC6CCC(C5)N6)nc(OCCCN5C[C@@H](C)O[C@@H](C)C5)nc4c3F)c12` (single isomer, unassigned) [Compound 283a, (S or R)-4-(4-((1R,5S)-3,8-diazacyclo[3.2.1]octan-3-yl)-2-(3-((2S,6R)-2,6-dimethylmorpholinylpropoxy)-6,8-difluoroquinazolin-7-yl)-5-ethylnaphthalen-2-oldihydrochloride], the IC50 was 19.2 nM on KRAS_G12D and cRAF; 15.8 nM on KRAS-G12D and SOS1; 761 nM on KRAS_WT and SOS1.

For `CCc1cccc2cc(O)cc(-c3c(F)cc4c(N5CC6CCC(C5)N6)nc(OC[C@H](C)CN5C6CCC5COC6)nc4c3F)c12` (single isomer, unassigned) [Compound 284a, (4S or 4R)-4-(2-((2R)-3-(3-oxa-8-azabicyclo[3.2.1]octan-8-yl)-2-methylpropoxy)-4-((1R,5S)-3,8-diazabicyclo[3.2.1]octan-3-yl)-6,8-difluoroquinazolin-7-yl)-5-ethylnaphthalen-2-ol dihydrochloride], the IC50 is 11 nM at KRAS_G12D and cRAF; 17.3 nM on KRAS-G12D and SOS1; 251 nM on KRAS_WT and SOS1.

`CCc1cccc2cc(O)cc(-c3c(F)cc4c(N5CC6CCC(C5)N6)nc(OC[C@@]56CCCN5C[C@H](F)C6)nc4c3F)c12` (single isomer, unassigned) [Compound 285a, (S or R)-4-(4-((1R,5S)-3,8-diazacyclo[3.2.1]octan-3-yl)-6,8-difluoro-2-((2R,7aS)-2-fluorotetrahydro-1H-pyrrolidin-7a(5H-yl)methoxy)quinazolin-7-yl)-5-ethylnaphthalen-2-ol dihydrochloride]: the IC50 at KRAS_G12D and cRAF was 9.12 nM; at KRAS-G12D and SOS1, 16.6 nM; on KRAS_WT and SOS1 it was 18.4 nM.

For `CCc1cccc2cc(O)cc(-c3c(F)cc4c(N5CC6CCC(C5)N6)nc(OC[C@H](C)CN5C6CCC5CC(OC)C6)nc4c3F)c12` (single isomer, unassigned) [Compound 286a, (S or R)-4-(4-((1R,5S)-3,8-diazabicyclo[3.2.1]octan-3-yl)-6,8-difluoro-2-((R)-3-((1R,3S,5S)-3-methoxy-8-azabicyclo[3.2.1]octan-8-yl)-2-methylpropoxy)quinazolin-7-yl)-5-ethylnaphthalen-2-o1 dihydrochloride], the IC50 is 9.77 nM on KRAS_G12D and cRAF; 13.5 nM on KRAS-G12D and SOS1; 262 nM on KRAS_WT and SOS1.

In the case of `C=CCN1CCC[C@H]1COc1nc(N2CC3CCC(C2)N3)c2cc(F)c(-c3cc(O)cc4ccc(F)c(CC)c34)c(F)c2n1` (single isomer, unassigned) [Compound 287a, 4-((S or R)-2-((S)-1-allylpyrrolidin-2-yl)methoxy)-4-((1R,5S)-3,8-diazacyclo[3.2.1]octan-3-yl)-6,8-difluoroquinazolin-7-yl)-5-ethyl-6-fluoronaphthalen-2-ol dihydrochloride], the IC50 at KRAS_G12D and cRAF was 11.3 nM; at KRAS-G12D and SOS1 it was 10.1 nM; at KRAS_WT and SOS1, 29.1 nM.

As to `CCc1c(F)ccc2cc(O)cc(-c3c(Cl)cc4c(N5CC6CCC(C5)N6)nc(OCCCN5C6CCC5COC6)nc4c3F)c12` (single isomer, unassigned) [compound 251], the IC50 was determined as 67.6 nM at KRAS_G12D and cRAF; 27.6 nM at KRAS-G12D and SOS1; 257 nM on KRAS_WT and SOS1.

Turning to `Oc1cc(-c2c(Cl)cc3c(N4CC5CCC(C4)N5)nc(OCCCN4C5CCC4COC5)nc3c2F)c2cc(F)ccc2c1` (single isomer, unassigned) [compound 252], the IC50 on KRAS_G12D and cRAF is 48 nM; at KRAS-G12D and SOS1, 21.7 nM; on KRAS_WT and SOS1 it was 414 nM.

With `Cn1cnc(Cn2ccc3ccc(CNCc4[nH]c5ccccc5c4[C@H]4NC(=O)c5ccc(O)cc54)cc32)c1` [BI-2852, reference compound], the IC50 at KRAS_G12D and cRAF worked out at 2700 nM; at KRAS-G12D and SOS1, 238 nM; on KRAS_WT and SOS1, 136 nM.

For `CN(C)CCCOc1nc(N2C[C@H]3CC[C@@H](C2)N3)c2cnc(-c3cc(O)cc4ccccc34)c(F)c2n1` [Compound 82, 4-(4-((1R,5S)-3,8-diazabicyclo[3.2.1]octan-3-yl)-2-(3-(dimethylamino)propoxy)-8-fluoropyrido[4,3-d]pyrimidin-7-yl)naphthalen-2-ol], the IC50 on KRAS_G12D and cRAF worked out at 102 nM; at KRAS-G12D and SOS1 it was 21.6 nM; at KRAS_WT and SOS1, 1560 nM.

As to `CN1C[C@@H](F)C[C@H]1COc1nc(N2CC3CCC(C2)N3)c2cnc(-c3cc(O)cc4ccccc34)c(F)c2n1` [Compound 129, 4-(4-((1R,5S)-3,8-diazabicyclo[3.2.1]octan-3-yl)-8-fluoro-2-((2S,4S)-4-fluoro-1-methylpyrrolidin-2-yl)methoxy)pyridinyl[4.3-d]pyrimidin-7-yl)naphthalen-2-ol ditrifluoroacetate], the IC50 is 180 nM at KRAS_G12D and cRAF; 42 nM at KRAS-G12D and SOS1; 2270 nM on KRAS_WT and SOS1.

For `CN1C[C@H](F)C[C@H]1COc1nc(N2CC3CCC(C2)N3)c2cnc(-c3cc(O)cc4ccccc34)c(F)c2n1` [Compound 131], the IC50 on KRAS_G12D and cRAF is 37 nM; at KRAS-G12D and SOS1, 20.9 nM; at KRAS_WT and SOS1, 222 nM.

Consider `C[C@H]1C[C@@H](COc2nc(N3CC4CCC(C3)N4)c3cnc(-c4cc(O)cc5ccccc45)c(F)c3n2)N(C)C1` [Compound 133, 4-(4-((1R,5S)-3.8-diazabicyclo[3.2.1]octan-3-yl)-2-((2S,4S)-1,4-dimethylpyrrolidin-2-yl)methoxy)-8-fluoropyridinyl[4,3-d]pyrimidin-7-yl)naphthalen-2-ol trifluoroacetate], for which the IC50 at KRAS_G12D and cRAF worked out at 18.7 nM; at KRAS-G12D and SOS1, 19.3 nM; on KRAS_WT and SOS1 it was 85.4 nM.
